Common to all, as to format: physicochemical
Data set [1] can be described thus: Aqueous solubility as a function of pH. The note with it: for Solubility / solubility at 24 h: room temperature (25° C.), shaken 24 hours; for solubility at 24 h: 25 °C, thermodynamic from solid. On the procedure: In addition to the characterizing analyses by XRPD, XRC, DSC, ATR-FTIR and SS NMR discussed hereinabove, the solubility of {4-[(1R,3S)-3-((R)-1-Naphthalen-1-yl-ethylamino)-cyclopentyl]-phenoxy}-acetic acid Form C and X has been determined as function of pH and in MeOH.
The aqueous solubility of Form C and Form X was determined as a function of pH at 25° C. in 0.1N HCl (pH 1.0) and in Sorensen phosphate buffers at pH 2.0, 4.0, 6.0 and 8.0. For each pH value two individual determinations were made. Form C or Form X was weighed out (11 mg for pH 1, 4 mg for pH 2-8) in scintillation vials and 4 ml 0.1N HCl or buffer was added. The vials were shaken for 24 hours at 25° C. After 24 hours it was checked that the vial still contained undissolved material. The suspensions were filtered through a 0.45 μm filter, which was first saturated with app. 0.5 ml filtrate. The resulting filtrates were diluted and analyzed by HPLC vs. a standard curve.

Data set [2] is described as follows: Stress stability test for solid state transformation. The note with it: 60° C., 60° C./75% relative humidity and 80° C./75% relative humidity; 4 weeks. The procedure:
Polymorph Form C, Form X and mixtures of the two polymorphic forms C+X have all been tested at different conditions of temperature and relative humidity for signs of solid state transformation. The stress stability test was carried out at three sets of conditions: 60° C., 60° C./75% relative humidity and 80° C./75% relative humidity, and samples were analyzed after 1, 2 and 4 weeks, i.e. after 7, 14 and 28 days.
One 1.8 ml amber screw top vial (27267-U, Supelco) containing between 50 and 100 mg {4-[(1R,3S)-3-((R)-1-Naphthalen-1-yl-ethylamino)-cyclopentyl]-phenoxy}-acetic acid was tested per individual set of conditions. The vials to be tested at 60° C. were closed with a PTFE lined black polypropylene solid cap (27416, Supelco) and placed in a thermostated heating cabinet. The vials to be tested at 60° C./75% relative humidity and 80° C./75% relative humidity were placed uncapped in a desiccator containing a saturated NaCl solution. The desiccator was subsequently placed in a thermostatted heating cabinet.
The samples were analyzed at 1, 2 and 4 weeks for • 1. Visual appearance • 2. HPLC assay and impurities • 3. Polymorph characterization

Data set [3] can be described thus: Thermo gravimetric analysis (TGA). The note with it: TGA trail of Graph 4b (Form X), ±2° C. The procedure:
TGA experiments were conducted using a Perkin Elmer Pyris 1 TGA instrument. About 10-20 mg of sample was loaded into a ceramic pan for the measurements. The sample temperature was ramped from 25 to 350° C. at 10° C./min. Nitrogen was used as the purge gas at a flow rate of 40 mL/min.

In brackets after ≈: the same amount, converted by molar mass. Several values for one entry are separate records, joined by “and”; a condition that tells them apart may be missing. Identical values can stand only once.

By Solubility is commonly meant the dissolved amount per volume that the medium holds. Read a high Solubility as a readily soluble substance. Turning to `C[C@@H](N[C@H]1CC[C@@H](c2ccc(OCC(=O)O)cc2)C1)c1cccc2ccccc12` [Form C, {4-[(1R,3S)-3-((R)-1-Naphthalen-1-yl-ethylamino)-cyclopentyl]-phenoxy}-acetic acid], the Solubility in data set [1] (pH 1.0 (0.1N HCl)) is 1225 µg/mL (≈ 3150 µM); in data set [1] (pH 2.0 (Sorensen phosphate buffer)), 394 µg/mL and 329 µg/mL; in data set [1] (pH 4.0 (Sorensen phosphate buffer)), 52 µg/mL and 53 µg/mL; in data set [1] (pH 6.0 (Sorensen phosphate buffer)), 43 µg/mL (≈ 110 µM); in data set [1] (pH 8.0 (Sorensen phosphate buffer)) it was 55 µg/mL (≈ 141 µM). Also, the “4 week stress stability test without any solid state transformation” value in data set [2] is listed as “passed”.

As usually defined, the solubility is the concentration that dissolves in the medium under given conditions. A high value points to a readily soluble substance. Take `C[C@@H](N[C@H]1CC[C@@H](c2ccc(OCC(=O)O)cc2)C1)c1cccc2ccccc12` [Form X, {4-[(1R,3S)-3-((R)-1-Naphthalen-1-yl-ethylamino)-cyclopentyl]-phenoxy}-acetic acid]: the solubility at 24 h was 1240 µg/mL (≈ 3190 µM) in data set [1] (0.1N HCl, pH 1, simulated gastric fluid, pH 1.0 (0.1N HCl)); 551 µg/mL (≈ 1410 µM) in data set [1] (Sorensen phosphate buffer, pH 2, aqueous buffer, pH 2.0 (Sorensen phosphate buffer)); 86 µg/mL (≈ 221 µM) in data set [1] (Sorensen phosphate buffer, pH 4, aqueous buffer, pH 4.0 (Sorensen phosphate buffer)); 78 µg/mL (≈ 200 µM) in data set [1] (Sorensen phosphate buffer, pH 6, aqueous buffer, pH 6.0 (Sorensen phosphate buffer)); 80 µg/mL (≈ 205 µM) in data set [1] (Sorensen phosphate buffer, pH 8, aqueous buffer, pH 8.0 (Sorensen phosphate buffer)). In addition, in data set [1] (room temperature), the “solubility compared to Form C” value is given as “higher”. For the same molecule, the “4 week stress stability test without any solid state transformation” value in data set [2] is listed as “passed”.

As to `C[C@@H](N[C@H]1CC[C@@H](c2ccc(OCC(=O)O)cc2)C1)c1cccc2ccccc12` [{4-[(1R,3S)-3-((R)-1-Naphthalen-1-yl-ethylamino)-cyclopentyl]-phenoxy}-acetic acid], in data set [3], the “stable towards degradation at temperatures below” value is “below 255 °C”. Further, the “4 week stress stability test without any solid state transformation” value in data set [2] is recorded as “passed”.

(Values after patent US8946474B2, “Polymorphic form of a calcimimetic compound” (LEO Pharma A/S, priority 2010, dated 2015).)
